Test results: US12686668B2, “Leukotriene synthesis inhibitors” (Naegis Pharmaceuticals Inc., priority 2019, dated 2026)

Assays:
[1] = test system: LTC4 production in MC/9 cells; experiment: MC/9 HPLC assay, inhibition of LTC4 production; format: cell-based; details: Mus musculus; for inhibition at 3 µM: MC9, 3 μM, A23187 stimulated; for inhibition at 1 µM: MC9, Table 2 column 3, no concentration in head (1 μM according to b732), read-out: % Inhibition LTC4
Experimental: (§1) Cultured MC/9 cells (3×10^6 cells) in 1 mL HBSS were pre-incubated with a series of concentrations of compound solubilized in DMSO for 30 minutes. Production of leukotrienes were stimulated with the addition of 1 μM calcium ionophore (A23187), diluted from a 4 mM DMSO stock in HBSS, and incubated at room temperature for 20 minutes. The reaction was stopped with the addition of 500 μL of methanol containing 20 ng/mL prostaglandin B2 as an internal standard. Samples were collected and stored at −20° C. at least 2 hr or overnight before centrifuged at 13,000 rpm for 15 minutes and loaded onto C18 SEP-PAK columns (Canadian Lifesciences IS12000) for solid phase extraction. The leukotrienes were analyzed by HPLC using an ACE C18 column (4.5 mm×150 mm, 5 m) eluted with acetonitrile/methanol/water mixture with H3PO4, pH 3.5 (37:26:37) with a flow rate of 1.8 mL/min. The amount of LTB4 (Cayman Chemical, 20110) and LTC4 (Cayman Chemical, 20210) were calculated based on reference standards and the level of inhibition of LTB4 production induced by the test compounds was calculated relative to control samples. The results are provided in Table 2, where Compound No. refers to the compounds identified in Table 1.

[2] = test system: LTB4 production in porcine or human whole blood; experiment: Whole blood HPLC assay, inhibition of LTB4 production; format: cell-based; details: 5 point curve, porcine or human whole blood (not specified)
Experimental: Porcine or human whole blood (1 mL) was pre-incubated with a series of concentrations of compound solubilized in DMSO for 30 minutes. Production of leukotrienes were stimulated with the addition of 20 μM calcium ionophore (A23187), diluted from a 4 mM DMSO stock in HBSS, and incubated at room temperature for 20 minutes. In porcine blood 20 μM arachidonic acid was added in addition to the calcium ionophore. The blood was centrifuged at 2,000 rpm for 15 minutes, and the plasma fraction removed for further processing. Plasma samples were diluted with 500 μL acidified water (HCl pH 3.0) and loaded onto C18 SEP-PAK columns (Canadian Lifesciences IS12000) for solid phase extraction. The leukotrienes were analyzed by HPLC using an ACE C18 column (4.5 mm×150 mm, 5 m) eluted with acetonitrile/methanol/water mixture with H3PO4, pH 3.5 (37:26:37) with a flow rate of 1.8 mL/min. The amount of LTB4 (Cayman Chemical, 20110) was calculated based on reference standards and the level of inhibition of LTB4 production induced by the test compounds was calculated relative to control samples. The results provided in Table 3 are IC50 values calculated based on a 5 point curve, where Compound No. refers to the compounds identified in Table 1.

[3] = test system: LTB4 production in MC/9 cells; experiment: MC/9 HPLC assay, inhibition of LTB4 production; format: cell-based; details: Mus musculus, MC9, Table 2 column 4, no concentration in head (1 μM according to b732), read-out: % Inhibition LTB4
Experimental: as §1

[4] = target: T1, recombinant human leukotriene A4 hydrolase enzyme (Homo sapiens, UniProt P09960); experiment: Amino-peptidase assay, alanine-4-nitroanalide; format: biochemical; details: negative values = augmented peptidase activity, read-out: % Inhibition aminopeptidase-Alanine-4-nitroanalide activity of LTA4H (3 μM)
T1 construct: purchased Cayman Chemical 10007817
T1 sequence (P09960 1-611): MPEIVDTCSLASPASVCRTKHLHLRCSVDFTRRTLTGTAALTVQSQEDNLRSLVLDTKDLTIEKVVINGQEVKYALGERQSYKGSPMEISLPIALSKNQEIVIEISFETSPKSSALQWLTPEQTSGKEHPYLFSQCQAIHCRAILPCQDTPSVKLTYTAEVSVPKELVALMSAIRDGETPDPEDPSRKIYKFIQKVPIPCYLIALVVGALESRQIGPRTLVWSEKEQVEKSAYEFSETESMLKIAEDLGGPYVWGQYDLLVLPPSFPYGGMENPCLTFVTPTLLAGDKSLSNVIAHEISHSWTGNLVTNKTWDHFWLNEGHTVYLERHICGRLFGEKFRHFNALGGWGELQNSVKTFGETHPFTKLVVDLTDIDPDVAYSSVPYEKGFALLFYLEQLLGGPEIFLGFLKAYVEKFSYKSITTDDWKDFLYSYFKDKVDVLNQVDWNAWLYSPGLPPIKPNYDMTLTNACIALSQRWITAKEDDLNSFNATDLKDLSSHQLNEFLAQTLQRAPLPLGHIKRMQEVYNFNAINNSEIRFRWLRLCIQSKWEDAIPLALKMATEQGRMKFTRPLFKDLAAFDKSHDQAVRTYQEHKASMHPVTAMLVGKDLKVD
Experimental: A series of compound concentrations were pre-incubated in the absence of light with 0.5 μg of recombinant human leukotriene A4 hydrolase enzyme (Cayman Chemical 10007817) in 50 μL assay buffer (50 mM Tris-HCl, 100 mM KCl). The reaction was stimulated by adding 50 μL 6 mM alanine-4-nitroanilide (Sigma Aldrich A9325) in assay buffer. The amount of amino-peptidase activity was measured by determining the change in absorbance at 405 nm due to 4-nitroanaline production and comparing the rate of change to a reference standard (Sigma Aldrich 185310). Amino-peptidase activity was compared to control samples and the level of inhibition was calculated. Compounds that augment peptidase activity are represented by negative values.

Structure (SMILES)	IC50 [2]	inhibition at 3 µM [4]	inhibition at 3 µM [1]	inhibition at 1 µM [1]	inhibition at 1 µM [3]
CCOc1cc(CCC(O)(CC)C(F)(F)F)ccc1Oc1nc2ccccc2s1 (stereo not drawn) [Compound 121, 1-[4-(1,3-benzothiazol-2-yloxy)-3-ethoxyphenyl]-3-(trifluoromethyl)pentan-3-ol]	–	0 to 50%	–	50 to 70%	50 to 70%
CCC(O)(CCc1ccc(Oc2nc3ccc(OC)cc3s2)c(OC)c1)C(F)(F)F (stereo not drawn) [Compound 109, 1-{4-[(6-methoxy-1,3-benzothiazol-2-yl)oxy]-3-methoxyphenyl}-3-(trifluoromethyl)pentan-3-ol]	–	0 to 50%	–	50 to 70%	70 to 90%
CCC(=O)CCc1ccc(Oc2nc3ccccc3o2)c(OC)c1 [Compound 102, 1-[4-(1,3-benzoxazol-2-yloxy)-3-methoxyphenyl]pentan-3-one]	–	0 to 50%	–	10 to 30%	> 90%
COc1cc(C(O)C(F)(F)F)ccc1Oc1nc2c(SC)cccc2s1 (stereo not drawn) [Compound 139, 2,2,2-trifluoro-1-(3-methoxy-4-{[4-(methylsulfanyl)-1,3-benzothiazol-2-yl]oxy}phenyl)ethanol]	1000 to 10000 nM	–	> 90%	–	–
COc1cc(CCC(C)(O)c2ccccc2)ccc1Oc1nc2ccccc2s1 (stereo not drawn) [Compound 123, 4-[4-(1,3-benzothiazol-2-yloxy)-3-methoxyphenyl]-2-(phenyl)butan-2-ol]	–	25 to 50%	–	10 to 30%	50 to 70%
COc1cc(CCC(C)(O)c2ccccc2)ccc1Oc1nc2ccccc2o1 (stereo not drawn) [Compound 128, 4-[4-(1,3-benzoxazol-2-yloxy)-3-methoxyphenyl]-2-phenylbutan-2-ol]	–	< 25%	< 10%	< 10%	< 10%
CCC(O)(CCc1ccc(Oc2nc3ccccc3s2)c(F)c1)C(F)(F)F (stereo not drawn) [Compound 154, 1-[4-(1,3-benzothiazol-2-yloxy)-3-fluorophenyl]-3-(trifluoromethyl)pentan-3-ol]	–	> 75%	< 10%	30 to 50%	50 to 70%
CCC(O)(CCc1ccc(Oc2nc3ccccc3n2C)c(OC)c1)C(F)(F)F (stereo not drawn) [Compound 105, 1-[4-(1-methyl-1H-benzimidazol-2-yloxy)-3-methoxyphenyl]-3-(trifluoromethyl)pentan-3-ol]	–	75%	70 to 90%	30 to 50%	–

Further lines, with some results ahead:

IC50 [2]	inhibition at 3 µM [4]	Structure (SMILES)	inhibition at 3 µM [1]	inhibition at 1 µM [1]	inhibition at 1 µM [3]
> 10000 nM	–	CC(O)c1ccc(Oc2nc3ccccc3s2)cc1 (stereo not drawn) [Compound 160, 1-[4-(1,3-benzothiazol-2-yloxy)phenyl]ethanol]	< 10%	–	–
100 to 1000 nM	–	CC(O)(c1ccc(OCc2ccc3ccccc3n2)cc1)C(F)(F)F (stereo not drawn) [Compound 197, 1,1,1-trifluoro-2-[4-(quinolin-2-ylmethoxy)phenyl]propan-2-ol]	> 90%	–	–
100 to 1000 nM	–	CCC(O)(CCc1ccc(OCc2ccc3ccccc3n2)c(OC)c1)C(F)(F)F (stereo not drawn) [Compound 198]	30 to 50%	–	–
> 10000 nM	–	CC(O)(c1ccc(Oc2nc3ccccc3s2)cc1)C(F)(F)F (stereo not drawn) [Compound 163, 2-[4-(1,3-benzothiazol-2-yloxy)phenyl]-1,1,1-trifluoropropan-2-ol]	10 to 30%	–	–
–	0 to 50%	COc1cc(C(C)(O)C(F)(F)F)ccc1Oc1nc2ccccc2s1 (stereo not drawn) [Compound 173, 2-[4-(1,3-benzothiazol-2-yloxy)-3-methoxyphenyl]-1,1,1-trifluoropropan-2-ol]	30 to 50%	–	–
> 10000 nM	–	COc1cc(C(C)(O)C(F)(F)F)ccc1OCc1ccc2ccccc2n1 (stereo not drawn) [Compound 199, 1,1,1-trifluoro-2-[3-methoxy-4-(quinolin-2-ylmethoxy)phenyl]propan-2-ol]	30 to 50%	–	–
–	50 to 75%	O=C(O)C1CCCN1Cc1ccc(Oc2nc3ccccc3s2)cc1 (stereo not drawn) [Compound 165, 1-[4-(1,3-benzothiazol-2-yloxy)benzyl]pyrrolidine-2-carboxylic acid]	< 10%	–	–
